Reference: US20120122860A1, “SOLID FORMS OF SULFONAMIDES AND AMINO ACIDS” (Plexxikon, Inc., priority 2009, published 2012)

Key:
C-Raf = C-Raf (Homo sapiens, UniProt P04049); experiment: Kinase activity assay, C-Raf
B-Raf V600E = B-Raf V600E (Homo sapiens, UniProt P15056, V600E); experiment: Kinase activity assay, B-Raf V600E; type: biochemical; conditions: read-out: activity toward kinase B-Raf V600E, IC50
Kdr = Kdr (Homo sapiens, UniProt P35968); experiment: Kinase activity assay, Kdr
Kit = Kit (Homo sapiens, UniProt P10721); experiment: Kinase activity assay, Kit
Kit, sequence (P10721 26-976): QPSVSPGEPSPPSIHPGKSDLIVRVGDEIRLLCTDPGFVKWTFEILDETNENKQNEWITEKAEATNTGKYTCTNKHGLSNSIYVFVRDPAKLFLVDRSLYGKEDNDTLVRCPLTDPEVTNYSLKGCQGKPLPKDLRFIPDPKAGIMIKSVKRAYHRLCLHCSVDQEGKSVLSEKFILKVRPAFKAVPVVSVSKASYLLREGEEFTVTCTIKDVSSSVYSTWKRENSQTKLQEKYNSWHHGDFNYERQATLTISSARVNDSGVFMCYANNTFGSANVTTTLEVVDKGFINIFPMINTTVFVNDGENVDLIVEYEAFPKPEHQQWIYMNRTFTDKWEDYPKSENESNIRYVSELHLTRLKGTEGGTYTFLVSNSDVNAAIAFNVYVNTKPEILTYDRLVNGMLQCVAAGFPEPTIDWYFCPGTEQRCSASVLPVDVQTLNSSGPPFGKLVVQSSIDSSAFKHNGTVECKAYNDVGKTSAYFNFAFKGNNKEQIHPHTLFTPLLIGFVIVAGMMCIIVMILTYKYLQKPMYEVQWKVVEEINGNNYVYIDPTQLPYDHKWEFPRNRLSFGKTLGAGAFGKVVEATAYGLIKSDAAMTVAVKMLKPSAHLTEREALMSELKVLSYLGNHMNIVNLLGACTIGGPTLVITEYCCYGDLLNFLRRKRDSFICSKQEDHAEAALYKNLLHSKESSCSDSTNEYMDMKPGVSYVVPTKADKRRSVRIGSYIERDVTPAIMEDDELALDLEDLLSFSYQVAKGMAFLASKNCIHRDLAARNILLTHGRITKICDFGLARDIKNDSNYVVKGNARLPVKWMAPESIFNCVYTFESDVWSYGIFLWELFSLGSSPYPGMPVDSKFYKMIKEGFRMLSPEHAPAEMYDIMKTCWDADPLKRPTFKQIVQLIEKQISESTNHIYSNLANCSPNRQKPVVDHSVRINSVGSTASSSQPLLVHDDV

B-Raf = B-Raf (Homo sapiens, UniProt P15056); experiment: Kinase activity assay, B-Raf; type: biochemical; conditions: read-out: activity toward kinase B-Raf, IC50
B-Raf, sequence (P15056 whole entry): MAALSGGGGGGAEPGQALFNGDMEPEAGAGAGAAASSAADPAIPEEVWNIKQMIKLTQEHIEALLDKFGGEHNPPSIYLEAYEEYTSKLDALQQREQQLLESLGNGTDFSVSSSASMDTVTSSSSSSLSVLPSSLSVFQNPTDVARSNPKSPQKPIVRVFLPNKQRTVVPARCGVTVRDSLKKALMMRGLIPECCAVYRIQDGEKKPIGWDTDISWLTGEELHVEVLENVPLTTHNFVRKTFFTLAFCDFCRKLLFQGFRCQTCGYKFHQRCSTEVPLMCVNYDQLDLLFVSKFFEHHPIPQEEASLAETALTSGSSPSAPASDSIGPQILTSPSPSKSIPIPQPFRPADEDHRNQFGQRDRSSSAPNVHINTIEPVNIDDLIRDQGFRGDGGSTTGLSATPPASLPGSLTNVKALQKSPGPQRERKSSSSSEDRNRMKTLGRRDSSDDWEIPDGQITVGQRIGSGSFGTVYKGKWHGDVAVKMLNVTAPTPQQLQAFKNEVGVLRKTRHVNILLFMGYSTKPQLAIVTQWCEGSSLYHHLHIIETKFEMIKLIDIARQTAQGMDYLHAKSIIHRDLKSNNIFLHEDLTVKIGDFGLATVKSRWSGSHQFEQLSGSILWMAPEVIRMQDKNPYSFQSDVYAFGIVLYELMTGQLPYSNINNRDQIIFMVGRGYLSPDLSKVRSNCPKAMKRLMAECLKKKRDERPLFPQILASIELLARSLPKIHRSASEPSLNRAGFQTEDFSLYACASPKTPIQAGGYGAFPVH

Src = Src (Homo sapiens, UniProt P12931); experiment: Kinase activity assay, Src
Src, sequence (P12931 whole entry): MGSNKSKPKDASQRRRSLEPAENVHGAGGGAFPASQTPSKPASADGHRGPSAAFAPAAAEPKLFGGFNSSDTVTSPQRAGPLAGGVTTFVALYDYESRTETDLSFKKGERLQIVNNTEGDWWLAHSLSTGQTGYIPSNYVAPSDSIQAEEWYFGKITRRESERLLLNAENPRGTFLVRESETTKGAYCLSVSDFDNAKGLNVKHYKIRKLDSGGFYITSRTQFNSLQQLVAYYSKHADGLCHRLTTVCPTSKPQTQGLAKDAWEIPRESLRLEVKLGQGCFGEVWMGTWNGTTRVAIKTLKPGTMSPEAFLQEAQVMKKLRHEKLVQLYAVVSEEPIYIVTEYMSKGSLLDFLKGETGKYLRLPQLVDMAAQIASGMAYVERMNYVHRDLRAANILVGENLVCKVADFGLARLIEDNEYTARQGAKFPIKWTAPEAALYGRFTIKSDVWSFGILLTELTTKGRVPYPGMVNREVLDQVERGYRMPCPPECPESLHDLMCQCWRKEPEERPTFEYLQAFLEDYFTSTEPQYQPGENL

Fms = Fms (Homo sapiens, UniProt P07333); experiment: Kinase activity assay, Fms
Fms, sequence (P07333 20-972): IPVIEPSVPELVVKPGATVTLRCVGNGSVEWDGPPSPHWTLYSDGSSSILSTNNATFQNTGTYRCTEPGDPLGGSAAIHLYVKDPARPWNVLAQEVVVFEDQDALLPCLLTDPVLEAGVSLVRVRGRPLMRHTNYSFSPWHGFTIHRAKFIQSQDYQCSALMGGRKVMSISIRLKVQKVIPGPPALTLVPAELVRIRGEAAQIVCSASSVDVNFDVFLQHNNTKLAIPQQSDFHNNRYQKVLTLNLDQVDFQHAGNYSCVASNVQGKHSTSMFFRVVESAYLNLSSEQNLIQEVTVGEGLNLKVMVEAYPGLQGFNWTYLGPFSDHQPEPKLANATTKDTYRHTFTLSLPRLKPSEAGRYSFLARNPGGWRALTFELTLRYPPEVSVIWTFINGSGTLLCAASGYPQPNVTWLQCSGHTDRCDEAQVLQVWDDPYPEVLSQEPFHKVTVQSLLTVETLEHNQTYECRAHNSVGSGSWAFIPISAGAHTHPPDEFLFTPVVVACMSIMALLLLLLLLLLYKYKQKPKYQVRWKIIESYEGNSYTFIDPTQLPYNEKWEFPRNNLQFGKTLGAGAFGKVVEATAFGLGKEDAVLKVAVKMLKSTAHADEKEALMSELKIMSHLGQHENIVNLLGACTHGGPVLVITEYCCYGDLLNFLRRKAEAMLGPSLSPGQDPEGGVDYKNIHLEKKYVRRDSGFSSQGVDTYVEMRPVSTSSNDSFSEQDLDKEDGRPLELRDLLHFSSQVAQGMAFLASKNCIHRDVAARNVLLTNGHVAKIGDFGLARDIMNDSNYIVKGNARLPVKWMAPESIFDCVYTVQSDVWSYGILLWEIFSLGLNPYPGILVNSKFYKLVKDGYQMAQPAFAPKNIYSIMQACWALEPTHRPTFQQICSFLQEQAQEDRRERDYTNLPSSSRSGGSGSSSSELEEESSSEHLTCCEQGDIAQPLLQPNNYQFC

B-Raf V600E, sequence (P15056 whole entry V600E): as the sequence (P15056 whole entry) above, with V600E counted along it
Kdr, sequence (P35968 20-1356): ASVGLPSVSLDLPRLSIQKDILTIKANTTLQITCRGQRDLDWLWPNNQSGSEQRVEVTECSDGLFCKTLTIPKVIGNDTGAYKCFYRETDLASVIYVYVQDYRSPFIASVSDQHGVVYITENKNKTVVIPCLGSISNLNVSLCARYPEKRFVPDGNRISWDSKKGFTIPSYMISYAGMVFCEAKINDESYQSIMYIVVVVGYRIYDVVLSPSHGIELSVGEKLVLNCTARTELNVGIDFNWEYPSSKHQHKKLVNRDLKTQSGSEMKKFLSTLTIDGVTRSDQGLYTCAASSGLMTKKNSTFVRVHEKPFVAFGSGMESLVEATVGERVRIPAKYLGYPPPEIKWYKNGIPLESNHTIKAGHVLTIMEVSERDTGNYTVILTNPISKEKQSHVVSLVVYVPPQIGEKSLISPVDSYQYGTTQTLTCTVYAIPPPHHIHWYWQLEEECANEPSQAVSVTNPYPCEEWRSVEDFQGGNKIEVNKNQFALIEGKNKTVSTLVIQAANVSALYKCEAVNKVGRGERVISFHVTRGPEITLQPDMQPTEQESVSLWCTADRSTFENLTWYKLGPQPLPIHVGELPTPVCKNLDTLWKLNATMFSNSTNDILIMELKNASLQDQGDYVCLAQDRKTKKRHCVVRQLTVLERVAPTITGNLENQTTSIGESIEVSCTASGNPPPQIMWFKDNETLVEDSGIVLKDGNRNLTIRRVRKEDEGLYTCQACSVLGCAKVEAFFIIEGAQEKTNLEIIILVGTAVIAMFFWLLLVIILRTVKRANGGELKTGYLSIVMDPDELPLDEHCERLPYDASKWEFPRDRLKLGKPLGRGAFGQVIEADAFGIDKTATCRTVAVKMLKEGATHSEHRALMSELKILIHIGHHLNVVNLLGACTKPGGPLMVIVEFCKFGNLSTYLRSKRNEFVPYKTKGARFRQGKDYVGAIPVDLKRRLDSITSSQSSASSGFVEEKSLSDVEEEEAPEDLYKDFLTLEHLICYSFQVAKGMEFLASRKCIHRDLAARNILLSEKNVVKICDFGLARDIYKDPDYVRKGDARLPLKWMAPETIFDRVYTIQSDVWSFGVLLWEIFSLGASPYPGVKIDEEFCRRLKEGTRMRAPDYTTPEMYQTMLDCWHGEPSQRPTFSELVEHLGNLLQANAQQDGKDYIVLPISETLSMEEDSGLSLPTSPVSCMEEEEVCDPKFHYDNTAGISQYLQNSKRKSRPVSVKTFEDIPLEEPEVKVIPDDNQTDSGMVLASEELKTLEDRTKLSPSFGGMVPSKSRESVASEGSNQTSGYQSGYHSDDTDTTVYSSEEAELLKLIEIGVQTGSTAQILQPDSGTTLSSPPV

Row | IC50 (C-Raf) | IC50 (B-Raf V600E) | IC50 (Kdr) | IC50 (Kit) | IC50 (B-Raf) | IC50 (Src) | IC50 (Fms) | Structure (SMILES)
1 | ≤ 10 µM | ≤ 10 µM | ≤ 10 µM | ≤ 10 µM | ≤ 10 µM | ≤ 10 µM | – | COc1ccnc2[nH]cc(C(=O)c3c(F)ccc(NS(=O)(=O)c4ccc(F)cc4F)c3F)c12 [P-2032, N-[2,4-Difluoro-3-(4-methoxy-1H-pyrrolo[2,3-b]pyridine-3-carbonyl)-phenyl]-2,4-difluoro-benzenesulfonamide]
2 | ≤ 10 µM | ≤ 10 µM | ≤ 10 µM | ≤ 10 µM | ≤ 10 µM | ≤ 10 µM | – | N#Cc1cnc2[nH]cc(C(=O)c3cccc(NS(=O)(=O)c4ccc(F)cc4F)c3F)c2c1 [P-2055, N-[3-(5-Cyano-1H-pyrrolo[2,3-b]pyridine-3-carbonyl)-2-fluoro-phenyl]-2,4-difluoro-benzenesulfonamide]
3 | ≤ 10 µM | ≤ 10 µM | ≤ 10 µM | – | ≤ 10 µM | ≤ 10 µM | – | CCCS(=O)(=O)Nc1ccc(F)c(C(=O)c2c[nH]c3ncc(-c4ccc(Cl)nc4)cc23)c1F [P-2154, Propane-1-sulfonic acid {3-[5-(6-chloro-pyridin-3-yl)-1H-pyrrolo[2,3-b]pyridine-3-carbonyl]-2,4-difluoro-phenyl}-amide]
4 | ≤ 10 µM | ≤ 10 µM | ≤ 10 µM | – | ≤ 10 µM | ≤ 10 µM | – | COc1ccnc2[nH]cc(C(=O)c3c(F)ccc(NS(=O)(=O)C(C)C)c3F)c12 [P-2280, Propane-2-sulfonic acid [2,4-difluoro-3-(4-methoxy-1H-pyrrolo[2,3-b]pyridine-3-carbonyl)-phenyl]-amide]
5 | ≤ 10 µM | ≤ 10 µM | ≤ 10 µM | ≤ 10 µM | – | ≤ 10 µM | – | CCCC(C)S(=O)(=O)Nc1ccc(F)c(C(=O)c2c[nH]c3ncc(Cl)cc23)c1F (stereo not drawn) [P-2311, Pentane-2-sulfonic acid [3-(5-chloro-1H-pyrrolo[2,3-b]pyridine-3-carbonyl)-2,4-difluoro-phenyl]-amide]
6 | – | – | – | ≤ 10 µM | – | ≤ 10 µM | – | O=C(c1c(F)ccc(NS(=O)(=O)CCC(F)(F)F)c1F)c1c[nH]c2ncc(-c3ccc(Cl)cc3)cc12 [P-2325, 3,3,3-Trifluoro-propane-1-sulfonic acid {3-[5-(4-chloro-phenyl)-1H-pyrrolo[2,3-b]pyridine-3-carbonyl]-2,4-difluoro-phenyl}-amide]
7 | ≤ 10 µM | ≤ 10 µM | – | – | ≤ 10 µM | ≤ 10 µM | – | COc1ccnc2[nH]cc(C(=O)c3c(F)ccc(NS(=O)(=O)CC(F)(F)F)c3F)c12 [P-2340, 2,2,2-Trifluoro-ethanesulfonic acid [2,4-difluoro-3-(4-methoxy-1H-pyrrolo[2,3-b]pyridine-3-carbonyl)-phenyl]-amide]
8 | – | ≤ 10 µM | ≤ 10 µM | ≤ 10 µM | – | – | ≤ 10 µM | O=C(c1c(F)ccc(NS(=O)(=O)C2CC2)c1F)c1c[nH]c2ncc(Br)cc12 [P-2348, Cyclopropanesulfonic acid [3-(5-bromo-1H-pyrrolo[2,3-b]pyridine-3-carbonyl)-2,4-difluoro-phenyl]-amide]
9 | ≤ 10 µM | – | ≤ 10 µM | – | ≤ 10 µM | ≤ 10 µM | – | O=C(c1c(F)ccc(NS(=O)(=O)c2ccc(C(F)(F)F)nc2)c1F)c1c[nH]c2ncc(Cl)cc12 [P-2481, 6-Trifluoromethyl-pyridine-3-sulfonic acid [3-(5-chloro-1H-pyrrolo[2,3-b]pyridine-3-carbonyl)-2,4-difluoro-phenyl]-amide]

Second part, the molecule before the results:

Row | Structure (SMILES) | IC50 (C-Raf) | IC50 (B-Raf V600E) | IC50 (Kdr) | IC50 (Kit) | IC50 (B-Raf) | IC50 (Src) | IC50 (Fms)
10 | Cc1cnc2[nH]cc(C(=O)c3cccc(NS(=O)(=O)c4ccc(C(F)(F)F)cc4)c3F)c2c1 [P-2059, N-[2-Fluoro-3-(5-methyl-1H-pyrrolo[2,3-b]pyridine-3-carbonyl)-phenyl]-4-trifluoromethyl-benzenesulfonamide] | ≤ 10 µM | ≤ 10 µM | ≤ 10 µM | – | ≤ 10 µM | ≤ 10 µM | –
11 | O=C(c1cc(NS(=O)(=O)c2ccc(F)cc2)ccc1F)c1c[nH]c2ncc(Cl)cc12 [P-2107, N-[3-(5-Chloro-1H-pyrrolo[2,3-b]pyridine-3-carbonyl)-4-fluoro-phenyl]-4-fluoro-benzenesulfonamide] | – | – | ≤ 10 µM | ≤ 10 µM | – | – | ≤ 10 µM
12 | O=C(c1cccc(NS(=O)(=O)c2ccc(F)cc2)c1)c1c[nH]c2ncc(Cl)cc12 [P-2121, N-[3-(5-Chloro-1H-pyrrolo[2,3-b]pyridine-3-carbonyl)-phenyl]-4-fluoro-benzenesulfonamide] | – | – | ≤ 10 µM | ≤ 10 µM | – | – | ≤ 10 µM
13 | O=C(c1cccc(NS(=O)(=O)c2cccc(C(F)(F)F)c2)c1)c1c[nH]c2ncc(Cl)cc12 [P-2122, N-[3-(5-Chloro-1H-pyrrolo[2,3-b]pyridine-3-carbonyl)-phenyl]-3-trifluoromethyl-benzenesulfonamide] | – | – | ≤ 10 µM | ≤ 10 µM | – | – | ≤ 10 µM
14 | O=C(c1cccc(NS(=O)(=O)c2cccc(OC(F)(F)F)c2)c1)c1c[nH]c2ncc(Cl)cc12 [P-2124, N-[3-(5-Chloro-1H-pyrrolo[2,3-b]pyridine-3-carbonyl)-phenyl]-3-trifluoromethoxy-benzenesulfonamide] | – | – | ≤ 10 µM | ≤ 10 µM | – | – | ≤ 10 µM
15 | O=C(c1cccc(NS(=O)(=O)c2cccc(Cl)c2)c1)c1c[nH]c2ncc(Cl)cc12 [P-2125, 3-Chloro-N-[3-(5-chloro-1H-pyrrolo[2,3-b]pyridine-3-carbonyl)-phenyl]-benzenesulfonamide] | – | – | ≤ 10 µM | ≤ 10 µM | – | – | ≤ 10 µM
16 | CCCS(=O)(=O)Nc1ccc(F)c(C(=O)c2c[nH]c3ncc(-c4cc(C)nn4C)cc23)c1F [P-2195, Propane-1-sulfonic acid {3-[5-(2,5-dimethyl-2H-pyrazol-3-yl)-1H-pyrrolo[2,3-b]pyridine-3-carbonyl]-2,4-difluoro-phenyl}-amide] | – | ≤ 10 µM | ≤ 10 µM | ≤ 10 µM | ≤ 10 µM | ≤ 10 µM | –
17 | CCCS(=O)(=O)Nc1ccc(F)c(C(=O)c2c[nH]c3ncc(/C=C/C(=O)OC)cc23)c1F [P-2225, (E)-3-{3-[2,6-Difluoro-3-(propane-1-sulfonylamino)-benzoyl]-1H-pyrrolo[2,3-b]pyridin-5-yl}-acrylic acid methyl ester] | ≤ 10 µM | ≤ 10 µM | ≤ 10 µM | – | ≤ 10 µM | ≤ 10 µM | –
18 | CCCS(=O)(=O)Nc1ccc(F)c(C(=O)c2c[nH]c3ncc(C#CCN(CC)CC)cc23)c1F [P-2241, Propane-1-sulfonic acid {3-[5-(3-diethylamino-prop-1-ynyl)-1H-pyrrolo[2,3-b]pyridine-3-carbonyl]-2,4-difluoro-phenyl}-amide] | – | – | ≤ 10 µM | ≤ 10 µM | – | – | ≤ 10 µM
19 | CN(C)S(=O)(=O)Nc1cccc(C(=O)c2c[nH]c3ncc(-c4ccc(Cl)cc4)cc23)c1F [P-2423, N,N-dimethylamino-sulfonic acid {3-[5-(4-chloro-phenyl)-1H-pyrrolo[2,3-b]pyridine-3-carbonyl]-2-fluoro-phenyl}-amide] | – | ≤ 10 µM | ≤ 10 µM | – | – | – | ≤ 10 µM
20 | O=C(c1cccc(NS(=O)(=O)N2CCCC2)c1F)c1c[nH]c2ncc(-c3ccc(Cl)cc3)cc12 [P-2425, Pyrrolidine-1-sulfonic acid {3-[5-(4-chloro-phenyl)-1H-pyrrolo[2,3-b]pyridine-3-carbonyl]-2-fluoro-phenyl}-amide] | ≤ 10 µM | ≤ 10 µM | ≤ 10 µM | – | ≤ 10 µM | – | ≤ 10 µM
21 | CCCCS(=O)(=O)Nc1ccc(F)c(C(=O)c2c[nH]c3ncc(Cl)cc23)c1 [P-2435, Butane-1-sulfonic acid [3-(5-chloro-1H-pyrrolo[2,3-b]pyridine-3-carbonyl)-4-fluoro-phenyl]-amide] | – | ≤ 10 µM | ≤ 10 µM | ≤ 10 µM | – | – | ≤ 10 µM
22 | O=C(c1cc(NS(=O)(=O)C2CC2)ccc1F)c1c[nH]c2ncc(Cl)cc12 [P-2436, Cyclopropanesulfonic acid [3-(5-chloro-1H-pyrrolo[2,3-b]pyridine-3-carbonyl)-4-fluoro-phenyl]-amide] | – | ≤ 10 µM | ≤ 10 µM | ≤ 10 µM | – | – | ≤ 10 µM
23 | CCCCS(=O)(=O)Nc1ccc(F)c(C(=O)c2c[nH]c3ncccc23)c1 [P-2438, Butane-1-sulfonic acid [4-fluoro-3-(1H-pyrrolo[2,3-b]pyridine-3-carbonyl)-phenyl]-amide] | – | – | ≤ 10 µM | ≤ 10 µM | – | – | ≤ 10 µM
24 | O=C(c1cc(NS(=O)(=O)C2CC2)ccc1F)c1c[nH]c2ncccc12 [P-2439, Cyclopropanesulfonic acid [4-fluoro-3-(1H-pyrrolo[2,3-b]pyridine-3-carbonyl)-phenyl]-amide] | – | – | ≤ 10 µM | – | – | – | ≤ 10 µM
25 | CCCCS(=O)(=O)Nc1cccc(C(=O)c2c[nH]c3ncc(Cl)cc23)c1 [P-2450, Butane-1-sulfonic acid [3-(5-chloro-1H-pyrrolo[2,3-b]pyridine-3-carbonyl)-phenyl]-amide] | – | ≤ 10 µM | ≤ 10 µM | ≤ 10 µM | – | – | ≤ 10 µM
26 | O=C(c1cccc(NS(=O)(=O)C2CC2)c1)c1c[nH]c2ncc(Cl)cc12 [P-2451, Cyclopropanesulfonic acid [3-(5-chloro-1H-pyrrolo[2,3-b]pyridine-3-carbonyl)-phenyl]-amide] | – | – | ≤ 10 µM | ≤ 10 µM | – | – | ≤ 10 µM
